Assay results as given in patent US20120083522A1, “MODULATION OF INFLAMMATORY RESPONSES BY FACTOR XI” (Isis Pharmaceuitcals, inc., priority 2009, published 2012).
In the oligonucleotide strings, read from the 5' end, every base follows the letter of its sugar. An asterisk marks phosphorothioate; unmarked linkages are phosphodiester. Other units and linkages are bracketed, terminal groups are in braces. A string of capitals states the bases alone. e = 2'-O-(2-methoxyethyl) (MOE); [5mC] = 5-methylcytosine; d = 2'-deoxy (DNA)

tested on: human Factor XI mRNA; assay: Antisense inhibition in HepG2 cells by microwalk gapmers, 75 nM, lipofectin (Example 3); format: cell-based; conditions: HepG2 cells, 75 nM, oligonucleotides targeted to nucleobases 1275 to 1318 of SEQ ID NO: 1
In short: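 HepG2 cells (10,000 per well) were transfected with 75 nM gapmer using lipofectin and treated for about 24 h. Factor XI mRNA was quantified by real-time PCR, normalized to RiboGreen total RNA and expressed as percent inhibition versus untreated controls.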

Row | Substance | % inhibition of human Factor XI mRNA levels [%]
1 | 416854 (antisense eA*eT*eT*eG*eG*dT*dG*d[5mC]*dA*d[5mC]*dA*dG*dT*dT*dT*e[5mC]*eT*eG*eG*e[5mC]) [compound 416854] | 90
2 | 416855 (antisense e[5mC]*eA*eT*eT*eG*dG*dT*dG*d[5mC]*dA*d[5mC]*dA*dG*dT*dT*eT*e[5mC]*eT*eG*eG) [compound 416855] | 87
3 | 416865 (antisense eT*eG*eG*e[5mC]*eA*dG*d[5mC]*dG*dG*dA*d[5mC]*dG*dG*d[5mC]*dA*eT*eT*eG*eG*eT) [compound 416865] | 88

tested on: human Factor XI mRNA; assay: Antisense inhibition in HepG2 cells by microwalk gapmers, 8,000 nM, electroporation (Example 14); format: cell-based; conditions: HepG2 cells, 8,000 nM
Experimental: These microwalk gapmers were tested in vitro. Cultured HepG2 cells at a density of 20,000 cells per well were transfected using electroporation with 8,000 nM antisense oligonucleotide. After a treatment period of approximately 24 hours, RNA was isolated from the cells and Factor XI mRNA levels were measured by quantitative real-time PCR. Factor XI mRNA levels were adjusted according to total RNA content, as measured by RIBOGREEN. Results are presented as percent inhibition of Factor XI, relative to untreated control cells.
The chimeric antisense oligonucleotides in Table 51 were designed as 5-10-5 MOE, 5-8-5 and 6-8-6 MOE gapmers. The first two listed gapmers in Table 51 are the original gapmers (ISIS 416850 and ISIS 416858) from which ISIS 445493-445543 were designed via microwalk, and are designated by an asterisk. The 5-10-5 gapmers are 20 nucleotides in length, wherein the central gap segment is comprised of ten 2′-deoxynucleotides and is flanked on both sides (in the 5′ and 3′ directions) by wings comprising five nucleotides each. The 5-8-5 gapmers are 18 nucleotides in length, wherein the central gap segment is comprised of eight 2′-deoxynucleotides and is flanked on both sides (in the 5′ and 3′ directions) by wings comprising five nucleotides each. The 6-8-6 gapmers are 20 nucleotides in length, wherein the central gap segment is comprised of eight 2′-deoxynucleotides and is flanked on both sides (in the 5′ and 3′ directions) by wings comprising six nucleotides each. For each of the motifs (5-10-5, 5-8-5 and 6-8-6), each nucleotide in the 5′ wing segment and each nucleotide in the 3′ wing segment has a 2′-MOE modification. The internucleoside linkages throughout each gapmer are phosphorothioate (P═S) linkages. All cytidine residues throughout each gapmer are 5-methylcytidines. “Human Target start site” indicates the 5′-most nucleotide to which the gapmer is targeted in the human sequence. “Human Target stop site” indicates the 3′-most nucleotide to which the gapmer is targeted in the human sequence. Each gapmer listed in Table 51 is targeted to SEQ ID NO: 1 (GENBANK Accession No. NM_000128.3). Each gapmer is Table 51 is also fully cross-reactive with the rhesus monkey Factor XI gene sequence, designated herein as SEQ ID NO: 274 (exons 1-15 GENBANK Accession No. NW—001118167.1). ‘Rhesus monkey start site’ indicates the 5′-most nucleotide to which the gapmer is targeted in the rhesus monkey sequence. ‘Rhesus monkey stop site’ indicates the 3′-most nucleotide to which the gapmer is targeted to the rhesus monkey sequence.

Row | Substance | Percent inhibition of human Factor XI mRNA levels [%]
4 | 416854 (antisense eA*eT*eT*eG*eG*dT*dG*d[5mC]*dA*d[5mC]*dA*dG*dT*dT*dT*e[5mC]*eT*eG*eG*e[5mC]) [compound 416854] | 86
5 | 416855 (antisense e[5mC]*eA*eT*eT*eG*dG*dT*dG*d[5mC]*dA*d[5mC]*dA*dG*dT*dT*eT*e[5mC]*eT*eG*eG) [compound 416855] | 85
6 | 416865 (antisense eT*eG*eG*e[5mC]*eA*dG*d[5mC]*dG*dG*dA*d[5mC]*dG*dG*d[5mC]*dA*eT*eT*eG*eG*eT) [compound 416865] | 86
7 | 445506 (antisense eA*e[5mC]*eG*eG*e[5mC]*eA*dT*dT*dG*dG*dT*dG*d[5mC]*dA*e[5mC]*eA*eG*eT*eT*eT) [compound 445506] | 86
8 | 445507 (antisense eG*eA*e[5mC]*eG*eG*e[5mC]*dA*dT*dT*dG*dG*dT*dG*d[5mC]*eA*e[5mC]*eA*eG*eT*eT) [compound 445507] | 85
9 | 445533 (antisense eA*e[5mC]*eG*eG*e[5mC]*dA*dT*dT*dG*dG*dT*dG*d[5mC]*eA*e[5mC]*eA*eG*eT) [compound 445533] | 87
10 | 445508 (antisense eG*eG*eA*e[5mC]*eG*eG*d[5mC]*dA*dT*dT*dG*dG*dT*dG*e[5mC]*eA*e[5mC]*eA*eG*eT) [compound 445508] | 81
11 | 445493 (antisense eA*e[5mC]*eA*eG*eT*eT*dT*d[5mC]*dT*dG*dG*d[5mC]*dA*dG*eG*e[5mC]*e[5mC]*eT*e[5mC]*eG) [compound 445493] | 69
12 | 445526 (antisense eT*eG*eG*eT*eG*d[5mC]*dA*d[5mC]*dA*dG*dT*dT*dT*e[5mC]*eT*eG*eG*e[5mC]) [compound 445526] | 81
